This is an account of results in patent EP4664463A1, “COMPUTER-IMPLEMENTED METHOD FOR OLFACTORY PROPERTY PREDICTION” (Givaudan SA, priority 2024, dated 2025).

Like-named read-outs stand apart in the source and are kept apart here.

Data set [1] deals with library of all class I OR with C-terminal domain RNKQIRDALKRLLKRKCCRRR (SEQ ID NO: 741). Description: Screening of the library of all class I OR with carboxylic acid ligands (luciferase). Type of data set: cell-based, human. The settings on record: full class I OR library (n = 77). The method, then:
All human class I OR and all key genetic variants of these OR were synthesized with a sequence coding for the identical C-terminal domain […] (SEQ ID NO: 741) in the vector pcDNA3.1(+) to generate a library of all class I OR with an improved C-terminal domain. Class I OR library members
Parallel transfection experiments were conducted with all these plasmids (n = 77, SEQ ID NO: 760, OR51F1 was excluded due to poor plasmid yield) and cells expressing the different OR were stimulated with one given ligand at a time. In total 10 different carboxylic acids ligands were tested on the full library of class I receptors.

Data set [2] has as its target T1, OR4S2 (Homo sapiens, UniProt Q8NH73).
T1 construct: expressed in transfected cells; host or cells: HEK293T stably expressing human RTP1S(V227I) and RTP2(L220R)
Briefly: cell-based. Type of data set: cell-based. An excerpt: (§1) To create an expression plasmid, an OR coding sequence fused at the end of TM7 to the desired C-terminus sequence was synthesized by a DNA synthesis service provider (BioCat GmbH, Germany) and inserted into pcDNA3.1(+) (Invitrogen, MA, USA) downstream of the CMV promoter sequence (SEQ ID NO: 82) using BamHI and Notl restriction sites. All the synthetic OR nucleotide sequences described below in Examples 1-15 further contained at their N-terminus a nucleotide sequence encoding a signal peptide (mmLucy-FLAG-rho, SeQ ID NOs: 80, 81) and at the C-terminus the bgh terminator sequence (SEQ ID NO: 83). All the OR expression plasmids also contain a Kozak sequence (GCCACC) between the BamHI restriction site and the start codon of the signal peptide. These plasmids thus contain a constitutively expressed OR gene.

The test system of data set [3] is OR4S2. Description: cell-based. Type of data set: cell-based, human.
Source text: as §1

In data set [4] the target is T2, OR4S2 (Homo sapiens, UniProt Q8NH73, A290K).
T2 construct: expressed in transfected cells; host or cells: HEK293T stably expressing human RTP1S(V227I) and RTP2(L220R)
T2 sequence (Q8NH73 with tags, fused parts or gaps A290K): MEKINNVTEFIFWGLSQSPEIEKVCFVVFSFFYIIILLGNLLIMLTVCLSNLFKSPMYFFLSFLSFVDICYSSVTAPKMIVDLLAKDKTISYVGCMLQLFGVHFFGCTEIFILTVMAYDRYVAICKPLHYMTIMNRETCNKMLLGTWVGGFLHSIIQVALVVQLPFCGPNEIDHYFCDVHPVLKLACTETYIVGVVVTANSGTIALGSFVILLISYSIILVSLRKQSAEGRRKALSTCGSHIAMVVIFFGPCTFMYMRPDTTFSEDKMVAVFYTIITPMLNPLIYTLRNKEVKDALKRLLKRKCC
Briefly: cell-based. It is filed as cell-based.
Source text: as §1

Data set [5] deals with library of all class II OR with modified C-terminal domain RNKEVKKAIKRLFKRKCCRRR (SEQ ID NO: 221). Description: Screening of the library of all class II OR with single odorants (luciferase). It is filed as cell-based, human. Conditions: full class II OR library (n = 408); maximal non-cytotoxic concentration. Here is the method: All human class II OR and all key genetic variants of these OR were synthesized with a sequence coding for an identical modified C-terminal domain […] (SEQ ID NO: 221) in the vector pcDNA3.1(+) to generate a library of all class II OR with an improved C-terminal domain. Class II OR library members with modified C-terminal domains
Parallel transfection experiments were conducted with all these plasmids (n = 408) and cells expressing the different OR were stimulated with one given ligand at a time, tested at the maximal, clearly non-cytotoxic concentration. In total 26 different ligands were tested on the full library of class II receptors.

Data set [6] has as its target T3, OR2T4 (Homo sapiens, UniProt Q8NH00).
T3 construct: expressed in transfected cells; host or cells: HEK293T cells stably expressing human RTP1S (V227I) and RTP2 (L220R)
Briefly: cell-based. Type of data set: cell-based.
Source text: as §1

Data set [7] has as its target T4, OR2T4 (Homo sapiens, UniProt Q8NH00, D328E/G331D/M330K).
T4 construct: expressed in transfected cells; host or cells: HEK293T cells stably expressing human RTP1S (V227I) and RTP2 (L220R)
T4 sequence (Q8NH00 with tags, fused parts or gaps D328E/M330K/G331D): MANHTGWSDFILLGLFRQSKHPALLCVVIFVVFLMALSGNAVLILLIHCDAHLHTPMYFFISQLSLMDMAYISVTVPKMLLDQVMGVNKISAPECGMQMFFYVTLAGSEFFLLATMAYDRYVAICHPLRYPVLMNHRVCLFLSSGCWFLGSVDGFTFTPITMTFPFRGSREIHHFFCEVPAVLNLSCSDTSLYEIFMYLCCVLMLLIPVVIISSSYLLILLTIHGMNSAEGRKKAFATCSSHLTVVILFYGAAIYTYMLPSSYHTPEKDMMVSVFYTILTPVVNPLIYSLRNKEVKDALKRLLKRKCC
Description: cell-based. Conditions: for ligands identified in screening of sulfur odorants: OR2T4 with SEQ ID NO: 86. Type of data set: cell-based.
Source text: as §1

Data set [8] concerns OR2T4. Description: cell-based. It is filed as cell-based, human.
Source text: as §1

Data set [9] concerns the target T5, OR2T11 (Homo sapiens, UniProt Q8NH01).
T5 construct: expressed in transfected cells; host or cells: HEK293T stably expressing human RTP1S(V227I) and RTP2(L220R)
Briefly: cell-based. Type of data set: cell-based.
Source text: as §1
T5 sequence (Q8NH01 with tags, fused parts or gaps): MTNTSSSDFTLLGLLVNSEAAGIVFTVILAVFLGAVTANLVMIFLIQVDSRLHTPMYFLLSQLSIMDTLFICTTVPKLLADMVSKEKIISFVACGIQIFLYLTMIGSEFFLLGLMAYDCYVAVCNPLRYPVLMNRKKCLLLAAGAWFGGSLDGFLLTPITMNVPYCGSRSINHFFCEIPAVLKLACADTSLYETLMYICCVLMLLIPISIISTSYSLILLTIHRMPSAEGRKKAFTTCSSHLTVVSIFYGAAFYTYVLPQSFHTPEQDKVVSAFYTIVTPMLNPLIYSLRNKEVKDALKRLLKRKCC

Data set [10] deals with T6, OR2T11 (Homo sapiens, UniProt Q8NH01).
T6 construct: expressed in transfected cells; host or cells: HEK293T stably expressing human RTP1S(V227I) and RTP2(L220R)
Briefly: cell-based. Type of data set: cell-based.
Source text: as §1
This is another data set of the same source.
T6 sequence (Q8NH01 whole entry): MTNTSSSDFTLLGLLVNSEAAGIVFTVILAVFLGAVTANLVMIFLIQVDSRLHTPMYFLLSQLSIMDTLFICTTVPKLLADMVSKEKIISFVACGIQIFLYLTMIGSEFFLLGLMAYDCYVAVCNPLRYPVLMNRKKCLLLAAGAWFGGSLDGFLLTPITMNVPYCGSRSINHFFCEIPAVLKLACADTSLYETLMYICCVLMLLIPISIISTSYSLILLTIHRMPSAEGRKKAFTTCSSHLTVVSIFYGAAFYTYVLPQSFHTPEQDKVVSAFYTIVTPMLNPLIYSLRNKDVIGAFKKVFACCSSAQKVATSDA

The test system of data set [11] is OR2T11. Briefly: cell-based. Type of data set: cell-based, human.
Source text: as §1

Data set [12] concerns the target T7, OR1C1 (Homo sapiens, UniProt Q15619).
T7 construct: expressed in transfected cells; host or cells: HEK293T cells stably expressing human RTP1S (V227I) and RTP2 (L220R)
Description: cell-based. Type of data set: cell-based.
Source text: as §1
T7 sequence (Q15619 with tags, fused parts or gaps): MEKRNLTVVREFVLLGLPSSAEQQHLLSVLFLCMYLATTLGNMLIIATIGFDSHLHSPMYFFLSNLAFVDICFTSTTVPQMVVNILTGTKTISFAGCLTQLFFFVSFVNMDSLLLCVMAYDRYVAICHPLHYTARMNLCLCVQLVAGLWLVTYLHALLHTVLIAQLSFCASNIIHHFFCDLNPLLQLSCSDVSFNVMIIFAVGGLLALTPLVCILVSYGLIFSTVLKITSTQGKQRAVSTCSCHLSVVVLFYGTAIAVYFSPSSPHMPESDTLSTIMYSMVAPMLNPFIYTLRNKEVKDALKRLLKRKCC

The test system of data set [13] is OR1C1. Description: cell-based. It is filed as cell-based, human.
Source text: as §1

For data set [14], the target named is T8, OR1C1 (Homo sapiens, UniProt Q15619).
T8 construct: expressed in transfected cells; host or cells: HEK293T cells stably expressing human RTP1S (V227I) and RTP2 (L220R)
Description: cell-based. It is filed as cell-based.
Source text: as §1
The source holds these as a separate data set.
T8 sequence (Q15619 whole entry): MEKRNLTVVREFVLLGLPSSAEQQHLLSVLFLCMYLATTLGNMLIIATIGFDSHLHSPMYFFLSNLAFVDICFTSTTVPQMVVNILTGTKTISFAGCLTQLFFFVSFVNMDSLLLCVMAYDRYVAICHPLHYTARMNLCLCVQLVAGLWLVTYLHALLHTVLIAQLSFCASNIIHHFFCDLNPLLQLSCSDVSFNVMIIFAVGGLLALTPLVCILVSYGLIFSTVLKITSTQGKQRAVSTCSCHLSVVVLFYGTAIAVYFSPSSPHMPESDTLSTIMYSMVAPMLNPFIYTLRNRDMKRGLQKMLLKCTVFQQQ

The target of data set [15] is T9, OR56A4 (Homo sapiens, UniProt Q8NGH8, T299N).
T9 construct: expressed in transfected cells; host or cells: HEK293T stably expressing human RTP1S(V227I) and RTP2(L220R)
T9 sequence (Q8NGH8 with tags, fused parts or gaps T299N): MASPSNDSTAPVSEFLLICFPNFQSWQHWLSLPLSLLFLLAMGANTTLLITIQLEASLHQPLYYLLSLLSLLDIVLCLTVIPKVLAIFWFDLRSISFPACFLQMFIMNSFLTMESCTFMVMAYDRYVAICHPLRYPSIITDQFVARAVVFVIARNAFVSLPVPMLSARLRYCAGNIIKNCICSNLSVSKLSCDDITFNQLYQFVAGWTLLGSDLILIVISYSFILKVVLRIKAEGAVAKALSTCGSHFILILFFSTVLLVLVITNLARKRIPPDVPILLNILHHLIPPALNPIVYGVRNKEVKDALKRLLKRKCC
Briefly: cell-based. Type of data set: cell-based.
Source text: as §1
(§2) Activation of OR56A4 by acids of different chain length was further tested. […] Replacing the wild-type with the C-terminal sequence of the functional OR51 E1 did reduce activity. However, using the optimized sequence form Examples 1-5 led to a strong signal and much lower detection threshold upon addition of all three acids.

The target of data set [16] is T10, OR56A4 (Homo sapiens, UniProt Q8NGH8).
T10 construct: expressed in transfected cells; host or cells: HEK293T stably expressing human RTP1S(V227I) and RTP2(L220R)
T10 sequence (Q8NGH8 1-313): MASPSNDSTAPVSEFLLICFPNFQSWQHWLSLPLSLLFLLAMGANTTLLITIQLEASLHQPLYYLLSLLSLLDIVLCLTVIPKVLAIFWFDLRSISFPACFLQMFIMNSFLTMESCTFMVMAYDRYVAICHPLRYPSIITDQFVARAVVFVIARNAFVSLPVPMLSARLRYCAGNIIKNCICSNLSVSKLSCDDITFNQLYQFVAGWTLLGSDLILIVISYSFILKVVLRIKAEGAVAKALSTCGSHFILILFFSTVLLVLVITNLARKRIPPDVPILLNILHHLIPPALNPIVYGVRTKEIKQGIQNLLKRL
Briefly: cell-based. Type of data set: cell-based.
Source text: as §1, §2

Data set [17] concerns OR56A4. Description: cell-based. It is filed as cell-based, human.
Source text: as §1, §2

Setting [18] is: wild-type, read-out: Potency EC50.
Where [19] appears, read: changed C-term SEQ ID NO: 86, read-out: Potency EC50.

T3 sequence (Q8NH00 35-348): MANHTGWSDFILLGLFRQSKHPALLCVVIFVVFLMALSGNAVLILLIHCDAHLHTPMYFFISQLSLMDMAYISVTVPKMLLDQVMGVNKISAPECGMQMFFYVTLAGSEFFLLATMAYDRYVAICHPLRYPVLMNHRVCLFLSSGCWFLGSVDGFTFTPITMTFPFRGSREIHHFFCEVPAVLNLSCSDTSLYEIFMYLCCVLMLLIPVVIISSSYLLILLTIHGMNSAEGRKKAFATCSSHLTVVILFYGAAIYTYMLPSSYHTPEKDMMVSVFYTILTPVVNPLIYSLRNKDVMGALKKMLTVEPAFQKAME

On to `CCC=C(C)C(=O)O` [2-Methyl-2-pentenoic acid], for which, in [1], the “Activated OR and OR variants” value is reported as “No activation observed”.

For the compound `CC(C)CC(=O)O` [3-Methylbutanoic acid], in [1], the “Activated OR and OR variants” value is recorded as “No activation observed”.

For the compound `c1ccc2scnc2c1` [Benzothiazole], the “Detection threshold; concentration for 2-fold induction” value in data set [2] is recorded as 29.4 µM. Moreover, the EC50 – broadly, the midpoint of the concentration-response curve – in [2] (setting [18]) was 137 µM. In data set [3], the Comments on efficacy is 2-fold lower maximal induction for wild-type, the Fold-improvement potency was 1.3 and the Fold-improvement threshold is 2.4. The “Detection threshold; concentration for 2-fold induction” value in data set [4] is 12.5 µM. Moreover, in data set [4] (setting [19]), the EC50 came to 104 µM.

As for `O=C(OCc1ccccc1)c1ccccc1O` [Benzyl salicylate], the “Activated OR and OR variants” value in data set [5] is given as “OR2AG2(Y28C)”.

Take `SC1CCCC1` [Cyclopentanethiol]: the “Detection threshold; concentration for 2-fold induction” value in data set [6] is on record as “n.i. (>> 316) µM”. In [6] (setting [18]), the concentration for a half-maximal effect (EC50) is over 316 µM. Also, in data set [7], the “Detection threshold; concentration for 2-fold induction” value turned out to be 3.89 µM and the “ligands identified in screening of sulfur odorants” value was “good ligands”. Further, the EC50 in data set [7] (setting [19]) is 14.6 µM. In data set [8], the Comments on efficacy entry was “No induction wild-type”, the Fold-improvement potency was >>2 and the Fold-improvement threshold is reported as >>100.

The compound `C=CCSSCC=C` [Diallyl disulfide] registered an EC50 in [9] (Potency EC50, changed C-term SEQ ID NO: 86) of 6.51 µM. Besides, in data set [9] (changed C-term. SEQ ID NO: 86), the “Detection threshold; concentration for 2-fold induction” value is recorded as 2.03 µM. Further, the 50% effective concentration (EC50) in data set [10] (Potency EC50, wild-type) was over 200 µM. In data set [10] (wild-type), the “Detection threshold; concentration for 2-fold induction” value is on record as over 200 µM. Besides, in [11], the Comments on efficacy result is “No induction wild-type”, the Fold-improvement potency was >>40 and the Fold-improvement threshold is listed as over 100. Further, the “ligands identified in screening of sulfur odorants” value in [7] was “good ligands”.

For `C=CC(C)(O)CCC=C(C)C` (stereo not drawn) [Linalool], the “Detection threshold; concentration for 2-fold induction” value in data set [12] is recorded as 16.2 µM; in [14] it was 34.7 µM. Besides, the results for the half-maximal effective concentration (EC50) in data set [12] (setting [19]) and in data set [14] (setting [18]) were 202 µM and 379 µM, respectively. The compound further returned a Fold-improvement potency in data set [13] of 1.9. The compound further registered a Fold-improvement threshold in data set [13] of 2.1.

In the case of `CCCCCCCCCCC(=O)O` [Undecanoic acid], the “Detection threshold; concentration for 2-fold induction” value in data set [15] turned out to be 3.2 µM; in [16], 43 µM. For the same compound, the EC50 in [15] (setting [19]) was found to be 22 µM; in [16] (setting [18]), 114 µM. The “activation of wild-type OR56A4” value in data set [16] (wild-type) was “activated at high concentration”. The compound also had a Fold-improvement potency in [17] of 5.1. The same compound had a Fold-improvement threshold in data set [17] of 13.5.
